{"source": "patent US10098346B2", "about": "“Diphenyliodonium salts as sulfidogenesis inhibitors and antimicrobials” (Ecolab USA Inc., priority 2015, dated 2018)", "assay_type_in_all_cases": "cell-based", "key": {"[1]": {"system": "hydrogen sulfide production by sulfur utilizing prokaryote", "test": "Hydrogen sulfide test kit (HACH, Model HS-C) in injection water aliquots", "conditions": "injection water (synthetic seawater, produced water, lactate, thiosulfate); 0.1-100 ppm; up to 305 days", "method": "(§1) A hydrogen sulfide test kit (HACH, Model HS-C) and an AccuCount test kit (available from Nalco Champion) were used to test the efficacy of diphenyliodonium chloride (DPIC) and diphenyliodonium nitrate (DPIN) in 100 mL aliquots of injection water collected by mixing synthetic seawater, produced water from an oil and gas production facility off-shore California, USA, lactate, and thiosulfate. The results of the testing of DPIC at 11 days, 84 days, and 305 days at concentrations of 0.1 ppm, 1 ppm, 10 ppm, and 100 ppm are shown in FIG. 2. The results of the testing of DPIC at 84 days and 305 days at concentrations of 0.1 ppm, 1 ppm, and 10 ppm are shown in FIG. 3. The results of the testing of DPIC and DPIN at 1 day, 7 days, and 14 days at concentrations of 0.1 ppm, 1 ppm, and 10 ppm in synthetic seawater are shown in the FIG. 4. The results of testing of DPIC and DPIN at 4 hours, 1 day, and 30 days at concentrations of 10 ppm and 100 ppm in 80% produced water, 50% produced water, and 20% produced water are shown in FIG. 5."}, "active microbes": {"system": "active microbes", "test": "AccuCount test kit, level of active microbes in injection water aliquots", "conditions": "injection water (synthetic seawater, produced water, lactate, thiosulfate); 0.1-100 ppm; up to 305 days", "method": "as §1"}, "[2]": {"test": "Next-generation DNA sequencing, relative abundance of each genus in treated samples", "conditions": "DPIC 1 ppm - 305 Days"}, "[3]": {"system": "sulfur reducing prokaryotes", "test": "Next-generation DNA sequencing, relative abundance of each genus in treated samples", "conditions": "1 ppm, 305 days"}}, "data": [{"smiles": "[Cl-].c1ccc([I+]c2ccccc2)cc1", "note": "[DPIC, diphenyliodonium chloride]", "values": [{"measurement": "reducing the concentration hydrogen sulfide", "setting": "[1]", "result": "effective"}, {"measurement": "reducing the level of active microbes", "setting": "active microbes", "result": "effective"}, {"measurement": "Relative Abundance, Acholeplasma sp. (APB)", "setting": "[2]", "result": 0.2, "unit": "%"}, {"measurement": "Relative Abundance, Citrobacter sp. (APB)", "setting": "[2]", "result": 0.3, "unit": "%"}, {"measurement": "Relative Abundance, Cryptanaerobacter sp. (APB)", "setting": "[2]", "result": 0.1, "unit": "%"}, {"measurement": "Relative Abundance, Kluyvera sp. (APB/GHB/NRB)", "setting": "[2]", "result": 3.5, "unit": "%"}, {"measurement": "Relative Abundance, Mangrovibacter sp. (NRB)", "setting": "[2]", "result": 0.2, "unit": "%"}, {"measurement": "Relative Abundance, Proteiniphilum sp. (APB)", "setting": "[2]", "result": 0.3, "unit": "%"}, {"measurement": "Relative Abundance, Pseudomonas sp. (NRB/GHB)", "setting": "[2]", "result": 0.5, "unit": "%"}, {"measurement": "Relative Abundance, Raoultella sp. (APB)", "setting": "[2]", "result": 28.8, "unit": "%"}, {"measurement": "Relative Abundance, Serratia sp. (NRB/GHB)", "setting": "[2]", "result": 59.3, "unit": "%"}, {"measurement": "Relative Abundance, Shimwellia sp. (APB)", "setting": "[2]", "result": 6.7, "unit": "%"}, {"measurement": "Relative Abundance, Sphaerochaeta sp. (APB)", "setting": "[2]", "result": 0.2, "unit": "%"}, {"measurement": "Relative Abundance, Thermovirga sp. (SRB)", "setting": "[2]", "result": 0.1, "unit": "%"}, {"measurement": "sulfur reducing prokaryotes by DNA sequencing", "setting": "[3]", "result": "no detectable"}]}, {"smiles": "O=[N+]([O-])[O-].c1ccc([I+]c2ccccc2)cc1", "note": "[DPIN, diphenyliodonium nitrate]", "values": [{"measurement": "reducing the concentration hydrogen sulfide", "setting": "[1]", "result": "effective"}, {"measurement": "reducing the level of active microbes", "setting": "active microbes", "result": "effective"}]}]}
